Assay results as given in US20250332263A1, “SURFACTANT STABILIZERS” (NOVARTIS AG, priority 2021, published 2025).
Entries after “also recorded” stand apart in the source; their conditions may differ. Blank lines part the entries; values can stand above or below the substance they belong to.

Key:
Protein 5 = assay: Protein stabilization, purity by SEC-UPLC; assay type: physicochemical; details: Protein 5 formulation, 0.2% PLX188 or 0.04% PS20, PS80 or VEDS, one month at 30° C.
Experimental: A liquid formulation containing Protein 5 was prepared as herein described. […] (FIG. 8). A pull point was taken after this time and used for the following analysis.

[1] = Surfactant stability under oxidative stress (H2O2); assay type: physicochemical; details: 0.25 M and 2.5 M H2O2, 6 days at 40° C., vs non-treated control
Experimental: (§1) Polysorbate 20/80 suffers from chemical and enzymatic degradation mechanisms as described earlier. In order to test the amphiphilic surfactants of the disclosure for stability against oxidative and hydrolytic stress, the following forced degradation assay was performed using hydrogen peroxide and various buffers to mimic those stress conditions. The aim was to mimic chemical degradation pathways that surfactants would encounter during shelf life.
(§2) H2O2(0.25 M and 2.5 M) was added to formulations containing surfactants and subsequently incubated for 6 days at 40° C. in order to mimic oxidative stress. In addition, surfactants were added to different buffer types (e.g., histidine, citrate, phosphate and succinate buffer) and exposed to accelerated degradation stress such as temperature stress (50° C. for 1 month) at different pH (5.5 and 6.5) in order to mimic chemical degradation pathways (e.g., oxidation, hydrolysis). Control samples were frozen to avoid degradation (FZ). Chromatography methods were used to determine the surfactant content of formulations after accelerated conditions by comparing it to the amount of surfactant spiked into the buffer at the beginning of the experiment.

[2] = Surfactant stability under pH and temperature stress in different buffers; assay type: physicochemical; details: pH 5.5 and 6.5, 50° C. for 1 month, vs frozen control (FZ)
Experimental: as §1, §2

[3] = tested on: host cell proteins (HCPs) of Protein 4; assay: Enzymatic degradation of surfactant in protein 4 formulation; assay type: physicochemical; details: 0.02% PS80 or 0.04% other surfactants, one month at 5° C. or 40° C., HPLC
Source text: Therefore, a formulation containing protein 4 also contains the enzymes responsible for polysorbate degradations and it is a suitable proxy for testing the propensity of enzymatic degradation during shelf life in real-world conditions.

[4] = Quiescence stability study, oxidative and hydrolytic degradation of surfactant in Protein 2 formulation; details: six months at 25° C.; for surfactant content left: HPLC main peak
Experimental: A pull point was taken every month and a half (TO, T1.5m, T3m, T4.5m and T6m) and frozen for storage.
The surfactant content was measured for all pull points of a specific surfactant in a single series by HPLC and the analysis was performed by a standard baseline correction followed by integration of the main peak, representing the integer (not degraded) surfactant.

[5] = tested on: protein 1 (disordered protein); assay: Orbital shaking forced degradation, particle count by micro-flow-imaging, Protein 1; assay type: physicochemical; details: orbital shaking 250 rpm, ambient temperature, 0 h, 7 h and 24 h
Experimental: The API corresponding buffer was prepared with 20 mM Histidine, 220 mM Succrose pH 5.8 in water.
The aim of this experiment was to investigate the effect of amphiphilic surfactants to protect proteins from interfacial stress, such as that which is present during manufacturing, transport and application. As a proxy for this stress the forced degradation assay (orbital shaking), applying mechanical stress, was used in order to determine whether chosen surfactants stabilize three different protein API's (disordered protein, Fab, mAb) against mechanical stress (mitigating particle creation (protein aggregates)).
1.2 mL of sample was aliquoted in each 6R vial (2x). Vials of same sample were pooled after the study in order to generate enough volume for all analytical testing.
Mechanical stress was generated through orbital shaking at 250 rpm at ambient temperature for 0 h, 7 h, 24 h and 48 h using an orbital shaker. Samples were subsequently analyzed via micro-flow-imaging (MFI). Particle count >2 μm/mL was visualized by MF.

dendritic cells = assay: Dendritic cell activation; assay type: cell-based, human; details: 48 h surfactant incubation, compared to LPS activated DC and no-treatment control
Experimental: Dendritic cell activation: Human whole blood was used to extract monocytes using MACS (magnetic activated cell sorting) according to manufacturer's instructions (Miltenyi Biotec Order no. 130-114-980). Cells were incubated for 6 days in respective differentiation media (Miltenyi DC differentiation medium order no. 130-094-812) resulting in dendritic cells. Cells were incubated in medium with surfactants in question for 48 h and subsequently stained for cell activation using fluorescently labeled antibodies (Mouse Anti-Human CD14 PerCP-Cy5.5 order no. 562692 from BD to check monocyte negative; Mouse Anti-Human CD11c BV605 from BD to check dendritic cell differentiation and Mouse Anti-Human CD80 FITC order no. 557226 from BD to check cell activation).

Basophile cells = assay: Basophile activation assay (B-cell activation); assay type: cell-based, human; details: compared to polysorbate and B-cell activating positive control
Experimental: Basophile activation assay: Human whole blood was used to purify B-cells using an in vitro B-cell activation kit (Cellonic, Basotest, Cat #10-0500). Basophile cells were incubated in 100 μL 1×wash buffer containing the final surfactant concentration as the correct dilutions were prepared beforehand. Cell labeling, lysis and fixation was performed according to manufacturer instructions and subsequently analyzed using a BD FORTESSA flow cytometer. Leucocytes are gated via forward and sideward scatter. The Basophile subpopulation was gated on CD123 and IgE staining. Finally, activated Basophile cells were identified via CD203c and CD63 gating. All fluorescently labeled antibodies were provided in the kit stated above.

protein 1 = assay: Equilibrium surface tension, pendant-drop tensiometer (protein displacement at air/water interface); assay type: physicochemical; details: surfactant in histidine buffer, absence or presence of protein 1, compared with protein 1 without surfactant; 60 min
Experimental: The aim of this experiment was to investigate the type of stabilization mechanism which the surfactants employ in protein-containing formulations. A Pendant-Drop Tensiometer was utilized to determine protein (API) displacement by surfactants at the air/water interface. Surfactant interface saturation mitigates the risk of interfacial stress for proteins and associated negative effects potentially impacting protein quality attributes.
The protein corresponding buffer was prepared and sterile filtered using a 0.22 μm filter unit. The surfactant in question was added into the buffer using a 5% stock solution as described earlier.
The buffer surfactant mix was aliquoted in 2 Nalgene bottles. To one of the two bottles was added the respective API in question to reach a final concentration of 1 mg/mL for protein 1 and 10 mg/mL for proteins 2 and 3.
Equilibrium surface tension was measured using the PAT-1M tensiometer (Sinterface). The system was rinsed 12 times with the sample to be measured. A hanging drop of constant volume (20 μL) was measured every second for 60 min. Drug substance samples with and without surfactants were measured at the same day to avoid operator, sample and day to day variations.

Platelets = assay: Inhibition of platelet aggregation, Whole Blood Aggregometry (WBA); assay type: cell-based, human; details: 0.04% or 0.01% surfactant, 10 minutes at 37° C.; agonists AA, TRAP6, collagen, ADP
Experimental: Human whole blood of 6 healthy volunteers was incubated with 0.04% or 0.01% surfactants for 10 minutes at 37° C. Saline solution was used as negative control. Platelets were activated with four independent agonists: arachidonic acid (AA), thrombin receptor activator peptide (TRAP6), collagen and ADP. Aggregation was measured through Whole Blood Aggregometry (WBA).
Whole Blood Aggregometry (WBA) consists of immerging electrodes into whole blood which measure the impedance between them. The addition of a platelet agonist activates the aggregation, resulting in an increase of impedance over time. This increase can be compared between a negative control and a testing sample to derive the degree of platelet inhibition.

protein purity, relative comparison between surfactants (Protein 5): lower purity | sum of impurities, relative comparison between surfactants (Protein 5): higher impurities
Substance: Polysorbate 20 [PS20]

surfactant content after oxidative stress (H2O2) [1]: stable; also recorded: minor loss | surfactant content after pH and temperature stress ([2]; citrate buffer): stable | surfactant content after pH and temperature stress ([2]; histidine buffer): decreased content | surfactant content after pH and temperature stress ([2]; phosphate buffer): decreased content | surfactant content after pH and temperature stress ([2]; succinate buffer): decreased content | surfactant content left [4]: ~5%
Substance: Polysorbate 80 [PS80]
surfactant content (enzymatic degradation by HCPs) [3]: Degradation is observed both at 5 °C and 40 °C

Substance: Vitamin E dimethyl glutarate [VEDG2.2]
particle count >2 μm/mL [5]: perform better than TPGS-1000 | mean fluorescence intensity (MFI) fold change, dendritic cell (DC) activation (dendritic cells; listed as VEDG 2.2): perform better than TPGS1000; also recorded: no DC activation | number of activated B cells (%) upon surfactant treatment (Basophile cells): lower level of B-cell activation than TPGS1000 | equilibrium surface tension / surface activity (protein 1): even higher surface activity resulting in significant drop of surface tension | surfactant content (enzymatic degradation by HCPs) [3]: not affected by enzymatic degradation | surfactant content left [4]: 88-90% | susceptibility to chemical degradation (surfactant content over time) ([4]; pull points every 1.5 months): minimal susceptibility to chemical degradation

Substance: Vitamin E dimethyl glutarate [VEDG3.3]
inhibition of platelet aggregation (Platelets): comparable platelet inhibition values as PS80 | mean fluorescence intensity (MFI) fold change, dendritic cell (DC) activation (dendritic cells; listed as VEDG 3.3): perform better than TPGS1000; also recorded: no DC activation
